Measured values reported in ChEMBL document CHEMBL1806455, “Synthesis, activity and pharmacokinetics of novel antibacterial 15-membered ring macrolones” (Eur J Med Chem, 2011).
Converted amounts (≈) assume the structure as drawn.

Legend:
Type in all cases: functional
Staphylococcus aureus [1] = test: Antibacterial activity against erythromycin-sensitive Staphylococcus aureus ATCC 13709 by broth microdilution method
Streptococcus pneumoniae [2] = test: Antibacterial activity against erythromycin-sensitive Streptococcus pneumoniae SP030 by broth microdilution method
Streptococcus pyogenes [3] = test: Antibacterial activity against erythromycin-sensitive Streptococcus pyogenes 3565 by broth microdilution method
Staphylococcus aureus [4] = test: Antibacterial activity against efflux-mediated macrolide-resistant Staphylococcus aureus PK1 by broth microdilution method
Streptococcus pneumoniae [5] = test: Antibacterial activity against efflux-mediated macrolide-resistant Streptococcus pneumoniae Ci137 by broth microdilution method
Streptococcus pyogenes [6] = test: Antibacterial activity against efflux-mediated macrolide-resistance Streptococcus pyogenes 2 Finland by broth microdilution method
Staphylococcus aureus [7] = test: Antibacterial activity against inducible macrolide-lincosamide-streptogramin B resistant Staphylococcus aureus 90256 by broth microdilution method
Streptococcus pneumoniae [8] = test: Antibacterial activity against inducible macrolide-resistant, constitutive lincosamide, streptogramin-resistant Streptococcus pneumoniae 134 GR M by broth microdilution method
Streptococcus pyogenes [9] = test: Antibacterial activity against inducible macrolide-lincosamide-streptogramin B resistant Streptococcus pyogenes Finland 11 by broth microdilution method
Staphylococcus aureus [10] = test: Antibacterial activity against constitutive macrolide, lincosamide, streptogramin-resistant Staphylococcus aureus PK2 by broth microdilution method
Streptococcus pneumoniae [11] = test: Antibacterial activity against constitutive macrolide, lincosamide, streptogramin-resistant Streptococcus pneumoniae 58 spain by broth microdilution method
Streptococcus pyogenes [12] = test: Antibacterial activity against macrolide, lincosamide, streptogramin-resistant Streptococcus pyogenes 166 GR-Micro by broth microdilution method
Haemophilus influenzae = test: Antibacterial activity against Haemophilus influenzae ATCC 49247 by broth microdilution method
Moraxella catarrhalis = test: Antibacterial activity against Moraxella catarrhalis ATCC 23246 by broth microdilution method

SMILES	MIC (Staphylococcus aureus [1]) [µg/mL]	MIC (Streptococcus pneumoniae [2]) [µg/mL]	MIC (Streptococcus pyogenes [3]) [µg/mL]	MIC (Staphylococcus aureus [4]) [µg/mL]	MIC (Streptococcus pneumoniae [5]) [µg/mL]	MIC (Streptococcus pyogenes [6]) [µg/mL]	MIC (Staphylococcus aureus [7]) [µg/mL]	MIC (Streptococcus pneumoniae [8]) [µg/mL]	MIC (Streptococcus pyogenes [9]) [µg/mL]	MIC (Staphylococcus aureus [10]) [µg/mL]	MIC (Streptococcus pneumoniae [11]) [µg/mL]	MIC (Streptococcus pyogenes [12]) [µg/mL]	MIC (Haemophilus influenzae) [µg/mL]	MIC (Moraxella catarrhalis) [µg/mL]
CC[C@H]1OC(=O)[C@H](C)[C@@H](O[C@H]2C[C@@](C)(OC)[C@@H](OC(=O)CCOCCNc3cc4c(=O)c(C(=O)OCOCCOC)cn(C5CC5)c4cc3Cl)[C@H](C)O2)[C@H](C)[C@@H](O[C@@H]2O[C@H](C)C[C@H](N(C)C)[C@H]2O)[C@](C)(O)C[C@@H](C)CN(C)[C@H](C)[C@@H](O)[C@]1(C)O	1 (≈ 0.824 µM)	≤ 0.125	≤ 0.125	2 (≈ 1.65 µM)	≤ 0.125	≤ 0.125	2 (≈ 1.65 µM)	≤ 0.125	≤ 0.125	> 64	0.25 (≈ 0.206 µM)	≤ 0.125	8 (≈ 6.59 µM)	8 (≈ 6.59 µM)
CCC(=O)CNC(=O)COC(=O)c1cn(C2CC2)c2ccc(NCCOCCC(=O)O[C@H]3[C@H](C)O[C@@H](O[C@H]4[C@H](C)[C@@H](O[C@@H]5O[C@H](C)C[C@H](N(C)C)[C@H]5O)[C@](C)(O)C[C@@H](C)CN(C)[C@H](C)[C@@H](O)[C@](C)(O)[C@@H](CC)OC(=O)[C@@H]4C)C[C@@]3(C)OC)cc2c1=O	1 (≈ 0.821 µM)	≤ 0.125	≤ 0.125	8 (≈ 6.57 µM)	≤ 0.125	≤ 0.125	16 (≈ 13.1 µM)	≤ 0.125	≤ 0.125	> 64	≤ 0.125	≤ 0.125	4 (≈ 3.28 µM)	–
CCCOC(=O)c1cn(C2CC2)c2cc(Cl)c(NCCOCCC(=O)O[C@H]3[C@H](C)O[C@@H](O[C@H]4[C@H](C)[C@@H](O[C@@H]5O[C@H](C)C[C@H](N(C)C)[C@H]5O)[C@](C)(O)C[C@@H](C)CN(C)[C@H](C)[C@@H](O)[C@](C)(O)[C@@H](CC)OC(=O)[C@@H]4C)C[C@@]3(C)OC)cc2c1=O	1 (≈ 0.856 µM)	≤ 0.125	≤ 0.125	1 (≈ 0.856 µM)	≤ 0.125	≤ 0.125	1 (≈ 0.856 µM)	≤ 0.125	≤ 0.125	> 64	≤ 0.125	≤ 0.125	4 (≈ 3.43 µM)	2 (≈ 1.71 µM)
CC[C@H]1OC(=O)[C@H](C)[C@@H](O[C@H]2C[C@@](C)(OC)[C@@H](OC(=O)CCOCCOCCNc3cc4c(=O)c(C(=O)O)cn(C(C)C)c4cc3Cl)[C@H](C)O2)[C@H](C)[C@@H](O[C@@H]2O[C@H](C)C[C@H](N(C)C)[C@H]2O)[C@](C)(O)C[C@@H](C)CN(C)[C@H](C)[C@@H](O)[C@]1(C)O	≤ 0.125	≤ 0.125	≤ 0.125	≤ 0.125	≤ 0.125	≤ 0.125	0.25 (≈ 0.213 µM)	0.25 (≈ 0.213 µM)	≤ 0.125	64 (≈ 54.6 µM)	≤ 0.125	1 (≈ 0.853 µM)	1 (≈ 0.853 µM)	1 (≈ 0.853 µM)
CCCOC(=O)c1cn(C2CC2)c2ccc(NCCOCCC(=O)O[C@H]3[C@H](C)O[C@@H](O[C@H]4[C@H](C)[C@@H](O[C@@H]5O[C@H](C)C[C@H](N(C)C)[C@H]5O)[C@](C)(O)C[C@@H](C)CN(C)[C@H](C)[C@@H](O)[C@](C)(O)[C@@H](CC)OC(=O)[C@@H]4C)C[C@@]3(C)OC)cc2c1=O	0.5 (≈ 0.441 µM)	≤ 0.125	≤ 0.125	2 (≈ 1.76 µM)	≤ 0.125	≤ 0.125	4 (≈ 3.53 µM)	≤ 0.125	≤ 0.125	> 64	≤ 0.125	≤ 0.125	2 (≈ 1.76 µM)	–
CC[C@H]1OC(=O)[C@H](C)[C@@H](O[C@H]2C[C@@](C)(OC)[C@@H](OC(=O)CCOCCNc3ccc4c(c3)c(=O)c(C(=O)OCCN3CCCCC3)cn4C3CC3)[C@H](C)O2)[C@H](C)[C@@H](O[C@@H]2O[C@H](C)C[C@H](N(C)C)[C@H]2O)[C@](C)(O)C[C@@H](C)CN(C)[C@H](C)[C@@H](O)[C@]1(C)O	0.25 (≈ 0.208 µM)	≤ 0.125	≤ 0.125	1 (≈ 0.832 µM)	≤ 0.125	≤ 0.125	4 (≈ 3.33 µM)	≤ 0.125	≤ 0.125	> 64	≤ 0.125	≤ 0.125	8 (≈ 6.65 µM)	1 (≈ 0.832 µM)
CC[C@H]1OC(=O)[C@H](C)[C@@H](O[C@H]2C[C@@](C)(OC)[C@@H](OC(=O)CCOCCOc3ccc4c(c3)c(=O)c(C(=O)O)cn4C3CC3)[C@H](C)O2)[C@H](C)[C@@H](O[C@@H]2O[C@H](C)C[C@H](N(C)C)[C@H]2O)[C@](C)(O)C[C@@H](C)CN(C)[C@H](C)[C@@H](O)[C@]1(C)O	≤ 0.125	≤ 0.125	≤ 0.125	0.25 (≈ 0.229 µM)	≤ 0.125	≤ 0.125	1 (≈ 0.915 µM)	≤ 0.125	≤ 0.125	32 (≈ 29.3 µM)	≤ 0.125	0.25 (≈ 0.229 µM)	0.5 (≈ 0.458 µM)	0.5 (≈ 0.458 µM)
CC[C@H]1OC(=O)[C@H](C)C(=O)[C@H](C)[C@@H](O[C@@H]2O[C@H](C)C[C@H](N(C)C)[C@H]2O)[C@](C)(OC)C[C@@H](C)C(=O)[C@H](C)[C@H]2N(CCCCn3cnc(-c4cccnc4)c3)C(=O)O[C@]12C [TELITHROMYCIN]	0.125 (≈ 0.154 µM)	≤ 0.125	≤ 0.125	≤ 0.125	0.25 (≈ 0.308 µM)	0.5 (≈ 0.616 µM)	≤ 0.125	0.25 (≈ 0.308 µM)	0.06 (≈ 0.0739 µM)	> 64	0.25 (≈ 0.308 µM)	16 (≈ 19.7 µM)	2 (≈ 2.46 µM)	≤ 0.125
CCCn1cc(C(=O)O)c(=O)c2cc(NCCOCCOCCC(=O)O[C@H]3[C@H](C)O[C@@H](O[C@H]4[C@H](C)[C@@H](O[C@@H]5O[C@H](C)C[C@H](N(C)C)[C@H]5O)[C@](C)(O)C[C@@H](C)CN(C)[C@H](C)[C@@H](O)[C@](C)(O)[C@@H](CC)OC(=O)[C@@H]4C)C[C@@]3(C)OC)c(Cl)cc21	0.25 (≈ 0.213 µM)	≤ 0.125	≤ 0.125	0.25 (≈ 0.213 µM)	≤ 0.125	≤ 0.125	32 (≈ 27.3 µM)	1 (≈ 0.853 µM)	≤ 0.125	> 64	≤ 0.125	1 (≈ 0.853 µM)	4 (≈ 3.41 µM)	0.5 (≈ 0.427 µM)
CC[C@H]1OC(=O)[C@H](C)[C@@H](O[C@H]2C[C@@](C)(OC)[C@@H](OC(=O)CCOCCNc3cc4c(=O)c(C(=O)OCOC(=O)C(C)(C)C)cn(C5CC5)c4cc3Cl)[C@H](C)O2)[C@H](C)[C@@H](O[C@@H]2O[C@H](C)C[C@H](N(C)C)[C@H]2O)[C@](C)(O)C[C@@H](C)CN(C)[C@H](C)[C@@H](O)[C@]1(C)O	1 (≈ 0.806 µM)	≤ 0.125	≤ 0.125	2 (≈ 1.61 µM)	≤ 0.125	≤ 0.125	4 (≈ 3.23 µM)	≤ 0.125	≤ 0.125	> 64	0.5 (≈ 0.403 µM)	≤ 0.125	1 (≈ 0.806 µM)	2 (≈ 1.61 µM)
CC[C@H]1OC(=O)[C@H](C)[C@@H](O[C@H]2C[C@@](C)(OC)[C@@H](OC(=O)CCOCCOc3cc4c(=O)c(C(=O)OCOC(=O)C(C)(C)C)cn(C5CC5)c4cc3Cl)[C@H](C)O2)[C@H](C)[C@@H](O[C@@H]2O[C@H](C)C[C@H](N(C)C)[C@H]2O)[C@](C)(O)C[C@@H](C)CN(C)[C@H](C)[C@@H](O)[C@]1(C)O	1 (≈ 0.806 µM)	≤ 0.125	≤ 0.125	2 (≈ 1.61 µM)	≤ 0.125	≤ 0.125	4 (≈ 3.22 µM)	0.25 (≈ 0.201 µM)	≤ 0.125	> 64	≤ 0.125	≤ 0.125	4 (≈ 3.22 µM)	4 (≈ 3.22 µM)
CC[C@H]1OC(=O)[C@H](C)[C@@H](O[C@H]2C[C@@](C)(OC)[C@@H](OC(=O)CCOCCNc3ccc4c(c3)c(=O)c(C(=O)O)cn4C3CC3)[C@H](C)O2)[C@H](C)[C@@H](O[C@@H]2O[C@H](C)C[C@H](N(C)C)[C@H]2O)[C@](C)(O)C[C@@H](C)CN(C)[C@H](C)[C@@H](O)[C@]1(C)O	0.5 (≈ 0.458 µM)	≤ 0.125	≤ 0.125	1 (≈ 0.916 µM)	≤ 0.125	≤ 0.125	0.5 (≈ 0.458 µM)	0.25 (≈ 0.229 µM)	≤ 0.125	32 (≈ 29.3 µM)	≤ 0.125	≤ 0.125	1 (≈ 0.916 µM)	0.5 (≈ 0.458 µM)
CC[C@H]1OC(=O)[C@H](C)[C@@H](O[C@H]2C[C@@](C)(OC)[C@@H](OC(=O)CCOCCNc3cc4c(=O)c(C(=O)OC(C)C)cn(C5CC5)c4cc3Cl)[C@H](C)O2)[C@H](C)[C@@H](O[C@@H]2O[C@H](C)C[C@H](N(C)C)[C@H]2O)[C@](C)(O)C[C@@H](C)CN(C)[C@H](C)[C@@H](O)[C@]1(C)O	0.5 (≈ 0.428 µM)	≤ 0.125	≤ 0.125	2 (≈ 1.71 µM)	≤ 0.125	≤ 0.125	2 (≈ 1.71 µM)	≤ 0.125	≤ 0.125	> 64	≤ 0.125	≤ 0.125	2 (≈ 1.71 µM)	–
